Assay results from patent US20230067064A1, “METHODS AND COMPOSITIONS FOR MODULATING SPLICING” (SkyHawk Therapeutics, Inc., priority 2019, published 2023).
Where two headings read alike, the source gives them in different places.

What was measured:
[1] = test system: cryptic exon within intron 49 of the Huntingtin (HTT) transcripts, GM04724 (CAG 70/20) Huntington's disease patient lymphoblasts; assay: Quantitative splicing assay (HTT); format: cell-based, human; conditions: average
Procedure: GM04724 (CAG 70/20) Huntington's disease patient lymphoblasts (Coriell) are plated in 96-well v-bottom plates at 50,000 cells/well. Immediately after plating, cells are dosed with compound for 24 h at concentrations ranging from 2.5 uM to 0.15 nM (0.1% DMSO). Treated cells are lysed and cDNA synthesized using the Fast Advanced Cells-to-Ct kit (Thermofisher A35378) according to the manufacturer's instructions. 2 uL of each cDNA are used in qPCR reactions to confirm the compound-induced inclusion of a cryptic exon within intron 49 of the Huntingtin (HTT) transcripts. The qPCR reactions are prepared in 384-well plates in 10 uL volume, using TaqMan™ Fast Advanced Master Mix [ThermoFisher; 4444965] with primers and probes shown in the table below. Reactions are run in a Quant Studio 6 qPCR instrument with default settings.

mHTT protein = mHTT protein assay, 2B7-MW1 Mesoscale Discovery (MSD); format: cell-based, human; conditions: GM04724 lymphoblast cells, 48 hours, 2B7-MW1 MSD; average; read-out: HTT Potency - Protein & Cytotoxicity: EC50 mHTT (average)
Procedure: Compounds are tested on GM04724 (CAG 70/20) Huntington's disease patient lymphoblast cells at doses ranging from 10 μM to 0.6 nM. 4,500 cells/well are seeded in 384 well plates. One plate replica is carried out for parallel viability testing by CellTiter Glo (CTG). Compounds are incubated for 48 hours. mHTT protein levels are assessed by the 2B7-MW1 assay via Mesoscale Discovery (MSD) as previously reported (Macdonald et al., 2014). The antibody pair is comprised of previously characterized monoclonals (2B7 and MW1) interrogating two regions for HTT conformation and biological properties: the N17 domain and the polyQ domain (Baldo et al., 2012; Ko et., 2001). 2B7-MW1 is dependent on subject/animal specific levels of HTT at the time of treatment. 2B7-MW1 is dependent on polyQ expansion (e.g., the higher the expansion the higher the signal) and on mHTT size (e.g., a similar polyQ will give higher signal with smaller HTT size). The viability readout is carried out by CTG according to the manufacturer's instructions. The results are show in Table A-10.

SMN protein = SMN protein assay, Mesoscale Discovery (MSD); format: cell-based, human; conditions: SMA patient fibroblasts (GM03813), 48 hours, average, read-out: SMN2 Potency - Protein: Protein FL EC50 (average)
Procedure: Compounds are tested on spinal muscular atrophy (SMA) patient fibroblasts (GM03813, Coriell) at doses ranging from 2.5 μM to 0.6 nM. 7000 cells/well are seeded in 96-well plates. Compounds are incubated for 48 hours and the cells were lysed with 100 μL of lysis buffer. 20 μL of lysate is used for SMN protein measurement by Mesoscale Discovery (MSD) assay developed by PharmOptima (Michigan). A standard curve prepared with SMN protein ranging from 1 μg/ml to 19.5 pg/ml is used in each MSD plate to calculate the absolute SMN protein amount in each sample.

[2] = test system: MDR1-MDCK cell monolayers; assay: MDCK-MDR1 permeability assay, blood-brain-barrier (BBB) penetration potential; format: in vitro ADME; conditions: for General MDCK-MDR1: % Recov A-B: A-B direction; for General MDCK-MDR1: % Recov B-A: B-A direction; for General MDCK-MDR1: Efflux: efflux ratio
Procedure: Each determination is performed in duplicate. […] Analytical conditions are outlined below.
Papp=(dCr/dt)×Vr/(A×CA) (1)

[3] = test system: SMN FL and SMN Δ7 mRNA, spinal muscular atrophy (SMA) patient fibroblasts (GM03813); assay: Quantitative splicing assay (SMN); format: cell-based, human; conditions: 24 h, average; for IC50: read-out: SMN2 Potency - Splicing: Splicing D7 IC50 (average); for EC50: read-out: SMN2 Potency - Splicing: Splicing FL EC50 (average)
Procedure: Spinal muscular atrophy (SMA) patient fibroblasts (GM03813, Coriell) are plated in 96-well plates at 50,000 cells/well. […] Treated cells are lysed and cDNA synthesized using the Fast Advanced Cells-to-Ct kit (Thermofisher A35378) according to the manufacturer's instructions. 2 μL of each cDNA are used in qPCR reactions. […] Reactions are run in a Quant Studio 6 qPCR instrument with default settings.

[4] = read-out: HTT Potency - Splicing: E49-50 EC50 (average)
[5] = read-out: HTT Potency - Splicing: E49b EC50 (average)

| SMILES | EC50 [1, 4] | EC50 [1, 5] | EC50 (mHTT protein) | EC50 (SMN protein) | General MDCK-MDR1: % Recov A-B [2] | General MDCK-MDR1: % Recov B-A [2] | General MDCK-MDR1: Efflux [2] | IC50 [3] | EC50 [3] |
| --- | --- | --- | --- | --- | --- | --- | --- | --- | --- |
| CN(c1ccc(-c2ccc(-n3ccnc3)cc2O)nn1)[C@@H]1C[C@H]2CC[C@@](C)(C1)N2 (single isomer, unassigned; ent1) [304-Ent1] | 0.01 to 15 nM | 0.01 to 15 nM | 0.01 to 15 nM | 0.01 to 15 nM | 94% | 90% | 137 |  |  |
| COCC12CCCC(CC(Oc3ccc(-c4ccc(-c5cnn(C)c5)cc4O)nn3)C1)N2 (single isomer, unassigned; ent1) [316-Ent1] | 16 to 50 nM | 16 to 50 nM | 0.01 to 15 nM | 0.01 to 15 nM | 84% | 96% | 43 | 16 to 50 nM | 51 to 100 nM |
| COc1cc(-c2ccc(-c3ccc(N(C)[C@@H]4C[C@H]5CC[C@@](C)(C4)N5)nn3)c(O)c2)cnn1 (single isomer, unassigned; ent1) [310-Ent1] |  |  | 0.01 to 15 nM | 501 to 10000 nM | 94% | 89% | 130 |  |  |
| C[C@]12CC[C@H](C[C@@H](Oc3ccc(-c4ccc(-c5cn[nH]c5)cc4O)nn3)C1)N2 (single isomer, unassigned; ent1) [309-Ent1] | 0.01 to 15 nM | 0.01 to 15 nM | 0.01 to 15 nM | 0.01 to 15 nM | 93% | 93% | 68 | 0.01 to 15 nM |  |
| COCC12CCC(CC(N(C)c3ccc(-c4cc(F)c(-n5ccnc5)cc4O)nn3)C1)N2 (single isomer, unassigned; ent2) [315-Ent2] | 0.01 to 15 nM | 0.01 to 15 nM | 0.01 to 15 nM |  | 104% | 107% | 117 |  |  |
| CN1[C@@H]2CCC[C@H]1C[C@H](Oc1ccc(-c3ccc(-c4cn[nH]c4)cc3O)nn1)C2 [compound 305] |  |  | 51 to 100 nM | 501 to 10000 nM |  |  |  |  |  |
| CC12CCC(CC(Oc3ccc(-c4ccc(-c5cn[nH]c5)cc4O)nn3)C1)N2 (single isomer, unassigned; ent2) [309-Ent2] | 0.01 to 15 nM | 0.01 to 15 nM | 0.01 to 15 nM |  | 91% | 86% | 50 |  |  |
| COc1cc(-c2ccc(-c3ccc(N(C)[C@@H]4C[C@H]5CCC[C@@](C)(C4)N5)nn3)c(O)c2)cnn1 (single isomer, unassigned; ent1) [311-Ent1] |  |  | 0.01 to 15 nM | 16 to 50 nM | 93% | 96% | 180 |  |  |
| COc1cc(-c2ccc(-c3ccc(N(C)C4CC5CCC(C)(C4)N5)nn3)c(O)c2)cnn1 (single isomer, unassigned; ent2) [310-Ent2] |  |  | 0.01 to 15 nM | 16 to 50 nM | 89% | 80% | 133 |  |  |
| CC12CCC(CC(Oc3ccc(-c4ccc(-n5ccnc5)cc4O)nn3)C1)N2 (single isomer, unassigned; ent2) [303-Ent2] | 0.01 to 15 nM | 0.01 to 15 nM | 0.01 to 15 nM | 0.01 to 15 nM | 86% | 88% | 62 | 16 to 50 nM | 16 to 50 nM |
| COc1cc(-c2ccc(-c3ccc(N(C)C4CC5CCCC(C)(C4)N5)nn3)c(O)c2)cnn1 (single isomer, unassigned; ent2) [311-Ent2] |  |  | 0.01 to 15 nM | 16 to 50 nM | 84% | 83% | 137 |  |  |
| CN(c1ccc(-c2ccc(-c3cnn(C)c3)cc2O)nn1)C1CC2(C)CCC(N2)C1F (single isomer, unassigned; ent2) [318-Ent2] |  |  | 0.01 to 15 nM | 0.01 to 15 nM |  |  |  |  |  |
| COCC12CCCC(CC(Oc3ccc(-c4ccc(-c5cnn(C)c5)cc4O)nn3)C1)N2 (single isomer, unassigned; ent2) [316-Ent2] | 16 to 50 nM | 16 to 50 nM | 16 to 50 nM | 0.01 to 15 nM | 77% | 106% | 40 | 16 to 50 nM | 51 to 100 nM |
| CN(c1ccc(-c2ccc(-n3ccnc3)cc2O)nn1)C1CC2CCC(C)(C1)N2 (single isomer, unassigned; ent2) [304-Ent2] | 0.01 to 15 nM | 0.01 to 15 nM | 0.01 to 15 nM | 0.01 to 15 nM | 87% | 83% | 109 |  |  |
| CN(c1ccc(-c2ccc(-c3cnn(C)c3)cc2O)nn1)C1CC2CCC(C)(N2)C1F (single isomer, unassigned; ent1) [317-Ent1] | 0.01 to 15 nM | 0.01 to 15 nM | 0.01 to 15 nM | 0.01 to 15 nM | 73% | 98% | 17 | 0.01 to 15 nM | 0.01 to 15 nM |
| C[C@]12CC[C@H](C[C@@H](Oc3ccc(-c4ccc(-n5ccnc5)cc4O)nn3)C1)N2 (single isomer, unassigned; ent1) [303-Ent1] | 16 to 50 nM | 16 to 50 nM | 0.01 to 15 nM | 0.01 to 15 nM | 90% | 90% | 40 | 16 to 50 nM | 101 to 500 nM |
